The text below walks through data of US20260373103A1, “COMPOSITIONS AND METHODS FOR PREVENTING CARDIOMYOPATHY” (OHIO STATE INNOVATION FOUNDATION, priority 2022, published 2026).

One series deals with mitochondrial function. Nature of the series: Mitochondrial function overall in cells. It is filed as cell-based. The note with it: regardless of USP30 expression. Here is the method: (§1) HeLa cells and mouse embryonic fibroblasts (MEFs) were grown in Dulbecco's minimum essential medium (DMEM) with 10% fetal bovine serum (FBS) supplemented with penicillin-streptomycin. HeLa Parkin, PINK1 KO cells, WT and MFN2 KO cells were previously described. Cells stably expressing USP30 were generated using lentiviral vectors of pLVX-Puro-Myc-USP30. The USP30 plasmid was obtained from Addgene. The plasmid was transferred into a lentiviral vector and viral particles were prepared by transiently transfecting HEK293T using standard methods. For the drug treatment experiments, cells were incubated in medium containing a mixture of 5 μM oligomycin and 5 μM antimycin A (A/O; see figures for treatment times). In 18 h treatment, A/O were used in combination with 10 μM quinolyl-valyl-O-methylaspartyl-[−2,6-difluorophenoxy]-methyl ketone (QVD), a broad-spectrum caspase inhibitor. ST51000539 (ST-539) was purchased from Tim Tec, Inc. Other chemicals were from Sigma-Aldrich (St. Louis, MO, USA). For FACS analysis, cells stably expressing mt-Keima were incubated in medium containing a mixture of 1 AM oligomycin and 1 AM antimycin A for 1.5 h. Prior to A/O treatment, cultures were treated with DMSO or ST-539 at 3 μg/ml. Cells were trypsinized, washed once with PBS buffer and then resuspended into 500 μl of PBS prior to analysis using a BD Fortessa flow cytometer as previously described.

In series [1] the test system is HeLa-Parkin cells and HeLa-Parkin cells that express USP30. The experiment in a line: Mitophagy in cells by mt-Keima fluorescence FACS. The class given is cell-based. Here is the method: as §1, with “For FACS analysis, cells stably expressing mt-Keima were incubated in medium containing a mixture of 1 AM oligomycin and 1 AM antimycin A for 1.5 h. Prior to A/O treatment, cultures were treated with DMSO or ST-539 at 3 μg/ml. Cells were trypsinized, washed once with PBS buffer and then resuspended into 500 μl of PBS prior to analysis using a BD Fortessa flow cytometer as previously described.” left out
We employed a sensitive fluorescence-activated cell sorting (FACS)-based method for detecting mitophagy using the pH-dependent fluorescent protein Keima. […] We exploited the mt-Keima probe and measured mitophagy in HeLa-Parkin cells and HeLa-Parkin cells that express USP30. […]

In series [2] the test system is heart tissue of mt-Keima mice. The experiment in a line: In vivo mitophagy in heart, mt-Keima mice. The arrangement: species or system mouse. The note with it: 25 mg/kg/day i.p. for 5 days. Here is the method: Fluorescent samples were examined with a Zeiss LSM 780 confocal microscope (Carl Zeiss MicroImaging). As previously described^2, fluorescence of mt-Keima was imaged in two channels via two sequential excitations (458 nm, green; 561 nm, red) and using a 570- to 695-nm emission range. Confocal experiments for parkin translocation were performed using a HeLa cell line stably expressing YFP-Parkin plated on 35 mm coverglass #1.5 chamber dishes (MatTek). These cells were treated for 2 h with DMSO as vehicle control or with A/O. YFP was imaged with a 514-nm excitation and 520- to 570-emission filters. Representative confocal images were processed using Imaris software by contrast linear stretch only. Calculation of mitophagy based on mt-Keima signal was performed using Zeiss ZEN software as previously described^2. The average of four images from each tissue sample was taken, and the values were normalized to the average value seen in the controls, assigned the value of one.
The mt-Keima mouse. […] The mice were lightly anesthetized with isoflurane and the ejection fraction, fractional shortening, and ventricular chamber dimensions were determined using 2-D-guided M mode images. Ejection fraction, fractional shortening, ventricular chamber dimensions, and left ventricular mass were calculated automatically using the VevoLAB program. […]

The subject of a further series is mt-Keima mice. The experiment in a line: Echocardiographic analysis. The class given is in vivo, mouse. The note with it: 25 mg/kg/day i.p. for 5 days, vs vehicle. The method, then:
The mt-Keima mouse. ST-539 was dissolved into 1% DMSO in Sesame oil and injected intraperitoneally (i.p.) at doses of 25 mg/kg/day with five total doses. Both male and female mice were used in this study. The control group received vehicle only. Echocardiographic measurements were taken using a Vevo3100 Visual Sonics (Visual Sonics) system. The mice were lightly anesthetized with isoflurane and the ejection fraction, fractional shortening, and ventricular chamber dimensions were determined using 2-D-guided M mode images. Ejection fraction, fractional shortening, ventricular chamber dimensions, and left ventricular mass were calculated automatically using the VevoLAB program. All experiments involving animals were approved by the Institutional Animal Care and Use Committee at The Ohio State University.

A further series concerns Jurkat T cells. Nature of the series: Doxorubicin-induced apoptosis / cell viability, Resazurin assay. The class given is cell-based. The note with it: 48 hours, ST-539 and doxorubicin.
Series [3] deals with HeLa-Parkin and HeLa-Parkin cells expressing USP30. The experiment in a line: Cell proliferation. The class given is cell-based. Particulars: ST-539, 24 hours.

Entries after “also recorded” stand apart in the source; their conditions may differ.

In the case of `CC(C)(C)NS(=O)(=O)c1cccc2c(NC(=O)C(Cc3ccccc3)NC(=O)c3ccccc3)cccc12` (stereo not drawn) [ST-539], the “effect on mitochondrial function” value in the series on mitochondrial function is reported as “minimal effect on mitochondrial function; also recorded: marginally alters mitochondrial function”. The “A/O induced mitophagy (mt-Keima FACS)” value in series [1] (ST-539 3 μg/ml, HeLa-Parkin cells expressing USP30) is given as “restored A/O induced mitophagy”. Further, the “mitophagy in the absence of mitochondrial stress” value in series [1] (cellular studies, ST-539, no stress) was “minimal change in mitophagy”. For the same compound, in series [2], the “cardiac mitophagy (red mt-Keima signal in heart tissue)” value was “marked induction of the red signal in the heart tissue; also recorded: efficiently induces cardiac mitophagy”. In addition, in the series with mt-Keima mice, the cardiac output entry is “similar; also recorded: does not appear to impact cardiac output”, the “ejection fraction (EF)” value was “similar; also recorded: minimal differences” and the “left ventricular posterior wall thickness (LVPWs)” value was “similar; also recorded: does not appear to impact”. Moreover, in the series with Jurkat T cells, the “doxorubicin-induced apoptosis in leukemia (percent cell viability)” value is “potentiates doxorubicin-induced apoptosis in leukemia”. The cell proliferation entry in series [3] is “maintained”.
